Reference: ChEMBL document CHEMBL6178018, “Design of an Oral STING Agonist through Intramolecular Hydrogen Bond Ring Mimicking to Achieve Complete Tumor Regression” (J Med Chem, 2025)
Active and inactive are the calls of the source. The rule behind the calls is not given here.

Assays:
[1] = biological target: T1, Stimulator of interferon genes protein (Homo sapiens, UniProt Q86WV6); assay: Agonist activity at human STING HAQ variant in human THP1-Blue ISG cells assessed as fold change in stimulation activity measured after 24 hrs incubation by QUANTI-Blue based microplate reader; assay type: cell-based
Target sequence in this assay (Q86WV6 whole entry, looked up, change not shown): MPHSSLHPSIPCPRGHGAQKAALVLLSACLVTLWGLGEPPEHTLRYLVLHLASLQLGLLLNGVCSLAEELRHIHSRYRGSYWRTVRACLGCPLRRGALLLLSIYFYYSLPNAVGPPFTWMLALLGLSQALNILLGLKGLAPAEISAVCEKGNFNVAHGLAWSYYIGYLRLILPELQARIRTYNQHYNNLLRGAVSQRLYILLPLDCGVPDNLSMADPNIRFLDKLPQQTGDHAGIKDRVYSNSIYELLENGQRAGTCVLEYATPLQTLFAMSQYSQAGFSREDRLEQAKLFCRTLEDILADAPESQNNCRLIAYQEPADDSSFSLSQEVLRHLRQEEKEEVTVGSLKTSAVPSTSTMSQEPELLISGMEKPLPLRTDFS

[2] = biological target: T1, Stimulator of interferon genes protein; assay: Agonist activity at STING R232 mutant (unknown origin) expressed in human THP1-Dual cells assessed as fold change in stimulation activity measured after 24 hrs incubation by QUANTI-Luc4 based microplate reader; assay type: cell-based
Target sequence in this assay (Q86WV6 whole entry, looked up, change not shown): as above

[3] = biological target: T2, Stimulator of interferon genes protein (Mus musculus, UniProt Q3TBT3); assay: Agonist activity at mouse STING expressed in human THP1-Dual cells assessed as fold change in stimulation activity measured after 24 hrs incubation by QUANTI-Luc4 based microplate reader; assay type: cell-based
T2 sequence (Q3TBT3 whole entry): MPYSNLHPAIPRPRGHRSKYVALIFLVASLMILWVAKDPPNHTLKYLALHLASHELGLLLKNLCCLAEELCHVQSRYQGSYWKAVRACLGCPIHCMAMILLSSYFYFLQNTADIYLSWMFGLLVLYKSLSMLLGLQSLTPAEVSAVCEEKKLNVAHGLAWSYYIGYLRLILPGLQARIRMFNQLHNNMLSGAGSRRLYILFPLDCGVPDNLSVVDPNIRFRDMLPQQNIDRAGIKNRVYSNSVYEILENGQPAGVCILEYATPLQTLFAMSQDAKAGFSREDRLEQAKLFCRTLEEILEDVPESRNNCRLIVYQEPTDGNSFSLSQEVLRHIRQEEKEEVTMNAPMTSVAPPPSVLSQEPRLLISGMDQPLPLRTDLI

[4] = biological target: T1, Stimulator of interferon genes protein; assay: Binding affinity to wild type His-tagged STING (unknown origin) measured after 3 hrs incubation by HTRF assay
Target sequence in this assay (Q86WV6 whole entry): as the sequence (Q86WV6 whole entry, looked up, change not shown) above

MC-38 [5] = assay: In vivo antitumor activity against mouse MC-38 cells inoculated in C57BL/6 mouse assessed as as increase in moue survival time at 60 mg/kg, po Q3D measured for 15 to 20 days; assay type: functional, organism-based; conditions: time 15-20 day
[6] = Stability of the compound in human plasma assessed as half life by LC-MS/MS analysis; assay type: ADME, cell-free
[7] = Metabolic stability in mouse liver microsomes assessed as half life at 10 uM measured up to 60 mins by LC-MS/MS analysis; assay type: ADME, Microsome
[8] = Chemical stability of the compound in MeOH/H2O solvent assessed as half life by LC-MS/MS analysis; assay type: physicochemical
[9] = Chemical stability of the compound in MeOH/H2O assessed as half life by LC-MS/MS analysis; assay type: physicochemical
MC-38 [10] = assay: In vivo antitumor activity against mouse MC-38 cells inoculated in C57BL/6 mouse assessed as complete tumor regression (CR) at 60 mg/kg, po Q3D measured for 15 to 20 days; assay type: functional, organism-based; conditions: time 15-20 day
[11] = Metabolic stability in human liver microsomes assessed as half life at 10 uM measured up to 60 mins by LC-MS/MS analysis; assay type: ADME, Microsome
[12] = Stability of the compound in mouse plasma assessed as half life by LC-MS/MS analysis; assay type: ADME, cell-free
MC-38 [13] = assay: In vivo antitumor activity against mouse MC-38 cells inoculated in C57BL/6 mouse assessed as complete tumor regression (CR) at 60 mg/kg, po Q3D co-administered with anti-PD1 measured for 15 to 20 days; assay type: functional; conditions: time 15-20 day
[14] = biological target: T1, Stimulator of interferon genes protein; assay: Agonist activity at human STING in human THP1-Blue ISG cells measured after 24 hrs incubation by QUANTI-Blue based microplate reader; assay type: cell-based
Target sequence in this assay (Q86WV6 whole entry): as the sequence (Q86WV6 whole entry, looked up, change not shown) above

## COc1cc2sc(C(=O)NCCC(=O)O)c(I)c2cc1OC
[1]
  EC50: > 100 µM

## COc1cc2sc(C(=O)N[C@@H](C)CC(=O)O)c(F)c2cc1OC
[1]
  EC50: > 100 µM

## COc1cc2sc(C(=O)NCC3(C(=O)O)CCC3)c(F)c2cc1OC
[2]
  EC50: 18.4 µM
[3]
  EC50: 22 µM
[4]
  IC50: 31.2 µM
[1]
  EC50: 3.7 µM

## COc1cc2sc(C(=O)NC[C@H](C)C(=O)O)c(F)c2cc1OC
[2]
  EC50: 58.5 µM
[3]
  EC50: 61.2 µM
[4]
  IC50: 33.3 µM
[1]
  EC50: 6.2 µM

## COc1cc2sc(C(=O)NCC(F)(F)C(=O)O)c(F)c2cc1Br
[1]
  EC50: > 100 µM

## C=Cc1cc2c(F)c(C(=O)NCCC(=O)O)sc2cc1OC
[1]
  EC50: > 100 µM

## COc1cc2sc(C(=O)NC(C)(C)CC(=O)O)c(F)c2cc1OC
[1]
  EC50: > 100 µM

## COc1cc2sc3c(c2cc1OC)C(=O)N(CCC(=O)O)C3=O
MC-38 [5]
  Activity: inactive
[6]
  half-life: 0.5 h
[7]
  half-life at 10 µM: > 1 h
[8]
  half-life: 0.35 h
[2]
  EC50: 19.6 µM
[9]
  half-life: 21 h
MC-38 [10]
  Activity: inactive
[3]
  EC50: 25.3 µM
[11]
  half-life at 10 µM: > 1 h
[12]
  half-life: > 1 h
[4]
  IC50: 22.1 µM
[1]
  EC50: 4.5 µM
MC-38 [13]
  Activity: 60%

## COc1cc2sc(C(=O)NCCB(O)O)c(F)c2cc1OC
[1]
  EC50: > 100 µM

## CONC(=O)C(C)CNC(=O)c1sc2cc(OC)c(Br)cc2c1F (stereo not given)
[1]
  EC50: > 100 µM

## CCC(CNC(=O)c1[se]c2cc(OC)c(OC)cc2c1F)C(=O)O (stereo not given)
[2]
  EC50: 13.3 µM
[3]
  EC50: 12.5 µM
[1]
  EC50: 3.8 µM

## CONC(=O)C(F)(F)CNC(=O)c1sc2cc(OC)c(Br)cc2c1F
[1]
  EC50: > 100 µM

## COc1cc2cc(C(=O)NCCC(=O)O)sc2cc1OC
[14]
  EC50: > 100 µM
[4]
  IC50: > 100 µM

## COc1cc2sc(C(=O)NCCC(=O)O)c(F)c2cc1OC
[9]
  half-life: > 48 h
[14]
  EC50: 30.3 µM
[4]
  IC50: 49.8 µM
[1]
  EC50: 30.3 µM

## COc1cc2sc(C(=O)NCCC(=O)O)c(Br)c2cc1OC
[1]
  EC50: 47.2 µM

## COc1cc2sc(C(=O)NCCc3nnn[nH]3)c(F)c2cc1OC
[1]
  EC50: > 100 µM

## COc1cc2[se]c(C(=O)NCC(C)C(=O)O)c(F)c2cc1OC (stereo not given)
[2]
  EC50: 26.1 µM
[3]
  EC50: 27 µM
[1]
  EC50: 5.7 µM

## CCC(CNC(=O)c1sc2cc(OC)c(OC)c(F)c2c1F)C(=O)O (stereo not given)
[1]
  EC50: > 100 µM

## COc1cc2sc(C(=O)NCCC(=O)O)c(F)c2cc1F
[1]
  EC50: > 100 µM

## CCC(CNC(=O)c1sc2cc(OC)c(OC(F)F)cc2c1F)C(=O)O (stereo not given)
[1]
  EC50: > 100 µM

## COc1cc2sc(C(=O)NCC(C)(C)C(=O)O)c(F)c2cc1OC
[1]
  EC50: > 100 µM

## COc1cc2sc(C(=O)NCCC(=O)O)c(Cl)c2cc1OC
[1]
  EC50: 26.5 µM

## CCOc1cc2c(F)c(C(=O)NCCC(=O)O)sc2cc1OC
[1]
  EC50: > 100 µM

## COc1cc2sc(C(=O)N[C@H](C)CC(=O)O)c(F)c2cc1OC
[1]
  EC50: > 100 µM
